Measurements from PubChem BioAssay AID1259407 (Chemical Carcinogenesis Research Information System (CCRIS), 2018).
The source made the active and inactive calls. The rule behind the calls is not given here.

System: CCRIS mutagenicity, Ames/micronucleus/aberration tests
Assay: CCRIS mutagenicity studies
[1] = Test System: AMES SALMONELLA TYPHIMURIUM, Strain/Indicator: TA100, Metabolic Activation: NONE, Method: STANDARD PLATE
[2] = Test System: AMES SALMONELLA TYPHIMURIUM, Strain/Indicator: TA100, Metabolic Activation: RAT, LIVER, MICROSOMES, PHENOBARBITAL, Method: PREINCUBATION
[3] = Test System: AMES SALMONELLA TYPHIMURIUM, Strain/Indicator: TA100, Metabolic Activation: RAT, LIVER, MICROSOMES, Method: PREINCUBATION

`ClCC(Br)CBr` (stereo unspecified) was tested, and the mutagenic call (End Point: IN VITRO CHROMOSOMAL ABERRATIONS, Test System: CHO CELLS, Metabolic Activation: NONE) was “active; positive”, the mutagenic call (End Point: IN VITRO CHROMOSOMAL ABERRATIONS, Test System: CHO CELLS, Metabolic Activation: RAT, LIVER, S-9, AROCLOR 1254) was “active; positive” and the mutagenic call (Test System: AMES SALMONELLA TYPHIMURIUM, Strain/Indicator: TA97, Metabolic Activation: HAMSTER, LIVER, S-9, AROCLOR 1254 (10%), Method: PREINCUBATION) was “active; positive”. The mutagenic call (Test System: AMES SALMONELLA TYPHIMURIUM, Strain/Indicator: TA97, Metabolic Activation: NONE, Method: PREINCUBATION) was “inactive; negative”, the mutagenic call (Test System: AMES SALMONELLA TYPHIMURIUM, Strain/Indicator: TA97, Metabolic Activation: RAT, LIVER, S-9, AROCLOR 1254 (10%), Method: PREINCUBATION) was “active; positive” and the mutagenic call (Test System: AMES SALMONELLA TYPHIMURIUM, Strain/Indicator: TA98, Metabolic Activation: HAMSTER, LIVER, S-9, AROCLOR 1254 (10%), Method: PREINCUBATION) was “active; positive”. For the same molecule, the mutagenic call (Test System: AMES SALMONELLA TYPHIMURIUM, Strain/Indicator: TA98, Metabolic Activation: NONE, Method: FLASK ASSAY) was “inactive; negative”, the mutagenic call (Test System: AMES SALMONELLA TYPHIMURIUM, Strain/Indicator: TA98, Metabolic Activation: NONE, Method: PREINCUBATION) was “inactive; negative” and the mutagenic call (Test System: AMES SALMONELLA TYPHIMURIUM, Strain/Indicator: TA98, Metabolic Activation: RAT, LIVER, S-9, AROCLOR 1254 (10%), Method: PREINCUBATION) was “inactive; negative”. For the same molecule, the mutagenic call (Test System: AMES SALMONELLA TYPHIMURIUM, Strain/Indicator: TA98, Metabolic Activation: RAT, LIVER, S-9, AROCLOR 1254, Method: FLASK ASSAY) was “active; positive”, the mutagenic call (Test System: AMES SALMONELLA TYPHIMURIUM, Strain/Indicator: TA100, Metabolic Activation: HAMSTER, LIVER, S-9, AROCLOR 1254 (10%), Method: PREINCUBATION) was “active; positive” and the mutagenic call (Test System: AMES SALMONELLA TYPHIMURIUM, Strain/Indicator: TA100, Metabolic Activation: NONE, Method: FLASK ASSAY) was “inactive; negative”. The mutagenic call (Test System: AMES SALMONELLA TYPHIMURIUM, Strain/Indicator: TA100, Metabolic Activation: NONE, Method: PREINCUBATION) was “inactive; negative”, the mutagenic call [1] was “inactive; negative” and the mutagenic call (Test System: AMES SALMONELLA TYPHIMURIUM, Strain/Indicator: TA100, Metabolic Activation: NONE, Method: SUSPENSION/PLATE) was “inactive; negative”. The mutagenic call (Test System: AMES SALMONELLA TYPHIMURIUM, Strain/Indicator: TA100, Metabolic Activation: RAT TESTICULAR CELLS, Method: STANDARD PLATE) was “inactive; negative”, the mutagenic call (Test System: AMES SALMONELLA TYPHIMURIUM, Strain/Indicator: TA100, Metabolic Activation: RAT, HEPATOCYTES, AROCLOR 1254, Method: STANDARD PLATE) was “active; positive” and the mutagenic call (Test System: AMES SALMONELLA TYPHIMURIUM, Strain/Indicator: TA100, Metabolic Activation: RAT, HEPATOCYTES, Method: STANDARD PLATE) was “active; positive”. The mutagenic call (Test System: AMES SALMONELLA TYPHIMURIUM, Strain/Indicator: TA100, Metabolic Activation: RAT, LIVER, HEPATOCYTES, Method: SUSPENSION/PLATE) was “active; positive”, the mutagenic call (Test System: AMES SALMONELLA TYPHIMURIUM, Strain/Indicator: TA100, Metabolic Activation: RAT, LIVER, MICROSOMES, AROCLOR 1254, Method: PREINCUBATION) was “active; positive” and the mutagenic call (Test System: AMES SALMONELLA TYPHIMURIUM, Strain/Indicator: TA100, Metabolic Activation: RAT, LIVER, MICROSOMES, PHENOBARBITAL, NADPH COFACTORS, Method: STANDARD PLATE) was “active; positive”. For the same molecule, the mutagenic call [2] was “active; positive”, the mutagenic call (Test System: AMES SALMONELLA TYPHIMURIUM, Strain/Indicator: TA100, Metabolic Activation: RAT, LIVER, MICROSOMES, PHENOBARBITAL, Method: STANDARD PLATE) was “inactive; negative” and the mutagenic call [3] was “active; positive”. For the same molecule, the mutagenic call (Test System: AMES SALMONELLA TYPHIMURIUM, Strain/Indicator: TA100, Metabolic Activation: RAT, LIVER, S-9, AROCLOR 1254 (10%), Method: PREINCUBATION) was “active; positive”, the mutagenic call (Test System: AMES SALMONELLA TYPHIMURIUM, Strain/Indicator: TA100, Metabolic Activation: RAT, LIVER, S-9, AROCLOR 1254, Method: FLASK ASSAY) was “active; positive” and the mutagenic call (Test System: AMES SALMONELLA TYPHIMURIUM, Strain/Indicator: TA100, Metabolic Activation: RAT,TESTICULAR CELLS, AROCLOR 1254, Method: STANDARD PLATE) was “inactive; negative”. The mutagenic call (Test System: AMES SALMONELLA TYPHIMURIUM, Strain/Indicator: TA100, Metabolic Activation: S-9 MIX, Method: STANDARD PLATE) was “active; positive”, the mutagenic call (Test System: AMES SALMONELLA TYPHIMURIUM, Strain/Indicator: TA1535, Metabolic Activation: HAMSTER, LIVER, S-9, AROCLOR 1254 (10%), Method: PREINCUBATION) was “active; positive” and the mutagenic call (Test System: AMES SALMONELLA TYPHIMURIUM, Strain/Indicator: TA1535, Metabolic Activation: NONE, Method: FLASK ASSAY) was “active; positive”. For the same molecule, the mutagenic call (Test System: AMES SALMONELLA TYPHIMURIUM, Strain/Indicator: TA1535, Metabolic Activation: NONE, Method: PREINCUBATION) was “inactive; negative”, the mutagenic call (Test System: AMES SALMONELLA TYPHIMURIUM, Strain/Indicator: TA1535, Metabolic Activation: RAT, LIVER, S-9, AROCLOR 1254 (10%), Method: PREINCUBATION) was “active; positive” and the mutagenic call (Test System: AMES SALMONELLA TYPHIMURIUM, Strain/Indicator: TA1535, Metabolic Activation: RAT, LIVER, S-9, AROCLOR 1254, Method: FLASK ASSAY) was “active; positive”. The mutagenic call (Test System: AMES SALMONELLA TYPHIMURIUM, Strain/Indicator: TA1537, Metabolic Activation: HAMSTER, LIVER, S-9, AROCLOR 1254 (10%), Method: PREINCUBATION) was “inactive; negative”, the mutagenic call (Test System: AMES SALMONELLA TYPHIMURIUM, Strain/Indicator: TA1537, Metabolic Activation: NONE, Method: FLASK ASSAY) was “inactive; negative” and the mutagenic call (Test System: AMES SALMONELLA TYPHIMURIUM, Strain/Indicator: TA1537, Metabolic Activation: RAT, LIVER, S-9, AROCLOR 1254 (10%), Method: PREINCUBATION) was “inactive; negative”. The mutagenic call (Test System: AMES SALMONELLA TYPHIMURIUM, Strain/Indicator: TA1537, Metabolic Activation: RAT, LIVER, S-9, AROCLOR 1254, Method: FLASK ASSAY) was “inactive; negative”, the mutagenic call (Test System: AMES SALMONELLA TYPHIMURIUM, Strain/Indicator: TA1538, Metabolic Activation: NONE, Method: FLASK ASSAY) was “inactive; negative” and the mutagenic call (Test System: AMES SALMONELLA TYPHIMURIUM, Strain/Indicator: TA1538, Metabolic Activation: RAT, LIVER, S-9, AROCLOR 1254, Method: FLASK ASSAY) was “inactive; negative”. For the same molecule, the mutagenic call (Test System: MOUSE LYMPHOMA, Strain/Indicator: L5178Y (TK+/TK-), Metabolic Activation: NONE, Method: SUSPENSION/PLATE) was “active; positive”, the mutagenic call (Test System: MOUSE LYMPHOMA, Strain/Indicator: L5178Y (TK+/TK-), Metabolic Activation: RAT, LIVER, S-9, AROCLOR 1254, Method: SUSPENSION/PLATE) was “active; positive” and the mutagenic call (Test System: UDS RODENT HEPATOCYTES, Strain/Indicator: THY INCORP (NON-S-PHASE), Metabolic Activation: AROCLOR 1254, Method: LIQUID SCINTILLATION COUNTING) was “inactive; negative”. The mutagenic call (Test System: UDS RODENT HEPATOCYTES, Strain/Indicator: THY INCORP (NON-S-PHASE), Metabolic Activation: NONE, Method: LIQUID SCINTILLATION COUNTING) was “active; positive”.

`CCc1cc(C(C)(C)C)c(O)c(C(C)(C)C)c1` was tested, and the mutagenic call (Test System: AMES SALMONELLA TYPHIMURIUM, Strain/Indicator: TA97, Metabolic Activation: NONE, Method: STANDARD PLATE) was “inactive; negative”, the mutagenic call (Test System: AMES SALMONELLA TYPHIMURIUM, Strain/Indicator: TA97, Metabolic Activation: S-9, Method: STANDARD PLATE) was “inactive; negative” and the mutagenic call (Test System: AMES SALMONELLA TYPHIMURIUM, Strain/Indicator: TA98, Metabolic Activation: NONE, Method: STANDARD PLATE) was “inactive; negative”. The mutagenic call (Test System: AMES SALMONELLA TYPHIMURIUM, Strain/Indicator: TA98, Metabolic Activation: S-9, Method: STANDARD PLATE) was “inactive; negative”, the mutagenic call [1] was “inactive; negative” and the mutagenic call (Test System: AMES SALMONELLA TYPHIMURIUM, Strain/Indicator: TA100, Metabolic Activation: S-9, Method: STANDARD PLATE) was “inactive; negative”. The mutagenic call (Test System: AMES SALMONELLA TYPHIMURIUM, Strain/Indicator: TA102, Metabolic Activation: NONE, Method: STANDARD PLATE) was “inactive; negative”, the mutagenic call (Test System: AMES SALMONELLA TYPHIMURIUM, Strain/Indicator: TA102, Metabolic Activation: S-9, Method: STANDARD PLATE) was “inactive; negative” and the mutagenic call (Test System: E.COLI, Strain/Indicator: WP2 (PKM101), Metabolic Activation: NONE, Method: STANDARD PLATE) was “inactive; negative”. For the same molecule, the mutagenic call (Test System: E.COLI, Strain/Indicator: WP2 (PKM101), Metabolic Activation: S-9, Method: STANDARD PLATE) was “inactive; negative”.

In the case of `CN=NNC`, the mutagenic call (Test System: AMES SALMONELLA TYPHIMURIUM, Strain/Indicator: TA1535, Metabolic Activation: NONE, Method: STANDARD PLATE) is reported as “active; positive”.

In the case of `CC(C)(Br)C(Br)COP(=O)(OCC(Br)C(C)(C)Br)OCC(Br)C(C)(C)Br` (stereo unspecified), the mutagenic call [2] is reported as “inactive; negative” and the mutagenic call [3] is reported as “inactive; negative”.
